Reference: patent publication EP4413976B1, “A NEW VAMOROLONE PREPARATION EXHIBITING IMPROVED SOLUBILITY” (Santhera Pharmaceuticals (Schweiz) AG, priority 2023, dated 2024)
Values after ≈ are worked out from the molar mass of the structure shown. Blank lines part the entries; values can stand above or below the compound they belong to.

Assays:
[1] = storage of cryo-milled amorphous Vamorolone; format: physicochemical; conditions: room temperature in a closed container
[2] = solubility in aqueous solution at 37°C; format: physicochemical
[3] = solvent solubility screening of micronized Vamorolone (visual, solvent added in aliquots); format: physicochemical; conditions: for 200 µl / +100 µl: 10 mg Vamorolone; for 200 µl: dissolved after 200 µl; for +100 µl: dissolved after further 100 µl
Protocol: The solubility of micronized Vamorolone was assessed in several typical organic solvent systems suitable for use in spray drying.
A quantity of 10 mg of Vamorolone was dispensed into a 2 mL HPLC vial. The experimental design was to add the test solvent in aliquots, 200 µl and 100 µl. After each aliquot addition the sample was to be mixed on a vortex mixer for 1 minute and solubility assessed visually. Observations were also made after one hour of solvent addition.

glucocorticoid receptor = biological target: T1, glucocorticoid receptor (Homo sapiens, UniProt P04150); conditions: pre-clinical data, background statement; cited from earlier work
T1 sequence (P04150 1-777): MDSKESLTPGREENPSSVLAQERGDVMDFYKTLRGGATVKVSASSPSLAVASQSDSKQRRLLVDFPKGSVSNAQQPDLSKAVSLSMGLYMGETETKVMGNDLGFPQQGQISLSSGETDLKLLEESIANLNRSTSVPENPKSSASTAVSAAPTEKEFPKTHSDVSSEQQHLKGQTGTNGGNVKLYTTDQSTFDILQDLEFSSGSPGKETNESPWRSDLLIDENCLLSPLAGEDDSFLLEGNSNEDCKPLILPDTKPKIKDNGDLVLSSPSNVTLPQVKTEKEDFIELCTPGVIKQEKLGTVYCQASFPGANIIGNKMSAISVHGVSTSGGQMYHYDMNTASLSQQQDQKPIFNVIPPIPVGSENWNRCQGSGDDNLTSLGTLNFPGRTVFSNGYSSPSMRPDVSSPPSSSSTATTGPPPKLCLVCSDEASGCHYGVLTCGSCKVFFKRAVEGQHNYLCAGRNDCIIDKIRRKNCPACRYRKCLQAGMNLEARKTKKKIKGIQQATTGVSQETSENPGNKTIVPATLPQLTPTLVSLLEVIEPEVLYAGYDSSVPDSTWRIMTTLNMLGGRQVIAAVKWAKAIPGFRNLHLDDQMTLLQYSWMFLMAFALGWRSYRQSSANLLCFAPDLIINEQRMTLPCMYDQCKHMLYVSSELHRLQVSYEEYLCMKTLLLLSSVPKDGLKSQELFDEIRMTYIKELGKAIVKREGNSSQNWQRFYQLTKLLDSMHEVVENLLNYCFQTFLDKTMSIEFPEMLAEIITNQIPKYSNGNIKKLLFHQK

inflammatory states = conditions: multiple mouse models of inflammatory states, background statement; cited from earlier work
[4] = kinetic solubility in FaSSIF (Pion µDissolution monitor); format: physicochemical; conditions: thermodynamic from solid, FaSSIF pH 6.5, 37° C
Protocol: SDD prototypes were evaluated for kinetic solubility in FaSSIF (Fasted State Simulated Intestinal Fluid, pH = 6.5) using the Pion µDissolution monitor with a tip path length of 2 mm. Data were collected using AUPro software over a period of 18 hours in 20 mL of each media, heated to 37 ± 2 °C. A stir speed of 250 rpm for the duration of the experiment.

physical stability of the amorphous form [1]: recrystallize within days
SMILES: C[C@@H]1C[C@H]2[C@@H]3CCC4=CC(=O)C=C[C@]4(C)C3=CC[C@]2(C)[C@@]1(O)C(=O)CO [amorphous Vamorolone, 17α,21-dihydroxy-16α-methylpregna-1,4,9(11)-triene-3,20-dione]

solubility [2]: ~40 µg/mL (≈ 112 µM)
Observation 1 hour after solubility assessment ([3]; Acetone): Hazy
Observation after solubility assessment ([3]; Acetone): Hazy
200 µl ([3]; Acetone): ×
+100 µl ([3]; Acetone): ×
Observation 1 hour after solubility assessment ([3]; DCM): Clear
Observation after solubility assessment ([3]; DCM): Clear
clear solution ([3]; DCM (dichloromethane):methanol (1:1)): 50 mg/mL
clear solution ([3]; DCM (dichloromethane):methanol (1:3)): 50 mg/mL
Observation 1 hour after solubility assessment ([3]; DCM:Methanol (1:1)): Clear
Observation after solubility assessment ([3]; DCM:Methanol (1:1)): Clear
200 µl ([3]; DCM:Methanol (1:1)): ✔
Observation 1 hour after solubility assessment ([3]; DCM:Methanol (1:3)): Clear
Observation after solubility assessment ([3]; DCM:Methanol (1:3)): Clear
200 µl ([3]; DCM:Methanol (1:3)): ✔
200 µl ([3]; DCM): ×
+100 µl ([3]; DCM): ✔
Observation 1 hour after solubility assessment ([3]; Ethanol): Hazy
Observation after solubility assessment ([3]; Ethanol): Hazy
200 µl ([3]; Ethanol): ×
+100 µl ([3]; Ethanol): ×
Observation 1 hour after solubility assessment ([3]; Ethyl Acetate): Hazy
Observation after solubility assessment ([3]; Ethyl Acetate): Hazy
200 µl ([3]; Ethyl Acetate): ×
+100 µl ([3]; Ethyl Acetate): ×
Observation 1 hour after solubility assessment ([3]; Isopropanol): Hazy
Observation after solubility assessment ([3]; Isopropanol): Hazy
200 µl ([3]; Isopropanol): ×
+100 µl ([3]; Isopropanol): ×
Observation 1 hour after solubility assessment ([3]; Methanol): Clear
Observation after solubility assessment ([3]; Methanol): Clear
200 µl ([3]; Methanol): ×
+100 µl ([3]; Methanol): ✔
Observation 1 hour after solubility assessment ([3]; Water): Hazy
Observation after solubility assessment ([3]; Water): Hazy
200 µl ([3]; Water): ×
+100 µl ([3]; Water): ×
SMILES: C[C@@H]1C[C@H]2[C@@H]3CCC4=CC(=O)C=C[C@]4(C)C3=CC[C@]2(C)[C@@]1(O)C(=O)CO [Vamorolone, 17α,21-dihydroxy-16α-methylpregna-1,4,9(11)-triene-3,20-dione]
binding to the glucocorticoid receptor (glucocorticoid receptor): binds potently
efficacy (inflammatory states): efficacy similar to prednisolone

solubility at 5 min ([4]; T=5 min): 46.4 µg/mL (≈ 130 µM)
solubility at 30 min ([4]; T=30 min): 48.9 µg/mL (≈ 137 µM)
solubility at 1 h ([4]; T=1 hour): 49.2 µg/mL (≈ 138 µM)
solubility at 4 h ([4]; T=4 hour): 49 µg/mL (≈ 137 µM)
solubility at 12 h ([4]; T=12 hour): 48.8 µg/mL (≈ 137 µM)
solubility at 18 h ([4]; T=18 hour): 48.7 µg/mL (≈ 137 µM)
SMILES: C[C@@H]1C[C@H]2[C@@H]3CCC4=CC(=O)C=C[C@]4(C)C3=CC[C@]2(C)[C@@]1(O)C(=O)CO [Crystalline API, 17α,21-dihydroxy-16α-methylpregna-1,4,9(11)-triene-3,20-dione]
